For assay [1] the following is noted: rats; 30 mg/kg/day; cited from earlier work.
Assay [2] deals with HFpEF (ZSF-1 obese) rats. As to the kind of experiment: Echocardiography of LA size in the ZSF-1 obese rat model of HFpEF after chronic treatment. It is filed as in vivo. The conditions noted are these: 30 mg/kg/day oral feeding, seven weeks, vs vehicle. The source says: Animal experiments were approved by local authorities. The ZSF-1 obese rat model is based on a leptin receptor mutation resulting in severe metabolic dysfunction. See Bilan V P, Salah E M, Bastacky S, Jones H B, Mayers R M, Zinker B, Poucher S M, Tofovic S P: “Diabetic nephropathy and long-term treatment effects of rosiglitazone and enalapril in obese ZSF1 rats,” J Endocrinol 2011, 210(3):293-308. The model has repeatedly been reported to show distinct features of HFpEF, such as an increased left ventricular (LV) end diastolic pressure, LV hypertrophy, diastolic dysfunction, lung congestion and LA remodeling, while maintaining a preserved ejection fraction (EF).
Echocardiography. Echocardiography was performed and analyzed as previously described (See Hohendanner F, Bode D, Primessnig U, Guthof T, Doerr R, Jeuthe S, Reimers S, Zhang K, Bach D, Wakula P et al: “Cellular mechanisms of metabolic syndrome-related atrial decompensation in a rat model of HFpEF” J Mol Cell Cardiol 2018, 115:10-19) by an experienced observer (N.H.) blinded to the treatment group immediately prior to sacrifice using a vevo lab ultrasound system to assess LA size and LV fractional shortening in vivo. 1-lead electrocardiograms were obtained during echocardiography and the presence or absence of atrial rhythm disorders i.e., atrial fibrillation was documented.

Assay [3] deals with LA cardiomyocytes. Nature of the assay: ROS production (H2-DCF) in LA cardiomyocytes. Type of assay: cell-based, rat. The conditions noted are these: HFpEF. On the procedure:
ROS production. LA cardiomyocytes were starved of glucose for 1 h at 37° C., loaded with H2-DCF and transferred to an LSM 800 laser scanning microscope. Two-dimensional images (excitation: 488 nm, emission: […]) were acquired for a duration of 30 s (interval: 2 s, resolution: 256×256 px, pixel size: 0.624 μm, pixel time: 8.24 μs, laser intensity: 0.6%). Cells were exposed to 30 mM glucose and another set of images acquired for a duration of 90 s. Image sequences acquired between 0-30 s (glucose starved) and 90-120 s (glucose saturated) were individually assessed. H2-DCF signal intensity (F) of the initial image was defined as F0, reactive oxygen species (ROS) accumulation calculated as ΔF=F−F0 per image, averaged per image sequence and reported as the respective rate ΔF/(F0*t).

For assay [4] the following is noted: setting of diabetes; cited from earlier work.
For assay [5], the system named is LA cardiomyocytes. Nature of the assay: Sarcomere shortening of LA cardiomyocytes. Type of assay: cell-based, rat. On the procedure: Ca^2+ measurements and sarcomere shortening. Radiometric Ca^2+ measurements (excitation: 340 nm and 385 nm, emission: 510±10 nm; [Ca^2+] expressed as the ratio R=F340/F380) were performed either with a CytoCypher MultiCell System (CytoCypher BV, Netherlands; FIGS. 1C-F, 2D-G, 4A-F) or an Axiovert 200 microscope (Zeiss, Oberkochen, Germany) fluorescence imaging assembly (FIGS. 2A-C, 2H-J, 3A-E, 6E-I). LA cardiomyocytes were loaded with Fura-2 for 30 min at room temperature, washed twice with Tyrode solution and transferred to the microscope. Experiments were conducted at 37° C. and CaT were recorded at steady state (following electric stimulation).
CaT and sarcomere shortening of LA and LV cardiomyocytes were recorded for 10 s at 3 Hz stimulation. See FIGS. 2D-G, 4A-F. Electric stimulation was turned off and spontaneous SR Ca^2+ release events (See Voigt N, Heijman J, Wang Q, Chiang D Y, Li N, Karck M, Wehrens X H T, Nattel S, Dobrev D: “Cellular and molecular mechanisms of atrial arrhythmogenesis in patients with paroxysmal atrial fibrillation,” Circulation 2014, 129(2):145-156) (SCaEs) immediately recorded for a duration of 10 s (FIG. 1C-F). In a sub-set of LA cells, CaT were recorded for 10 s at 1 Hz stimulation. Electric stimulation was turned off, the cells immediately exposed to 20 mM caffeine and the sub-sequent caffeine-induced CaT recorded for 10 s (FIG. 2A-C, 3A-E). Sodium-calcium exchanger (NCX) activity was calculated as previously described. See Hohendanner F, Walther S, Maxwell J T, Kettlewell S, Awad S, Smith G L, Lonchyna V A, Blatter L A: “Inositol-1,4,5-trisphosphate induced Ca^2+ release and excitation-contraction coupling in atrial myocytes from normal and failing hearts,” J Physiol 2015, 593(6):1459-1477.

As to `CCOc1ccc(Cc2cc([C@@H]3O[C@H](SC)[C@@H](O)[C@H](O)[C@H]3O)ccc2Cl)cc1` [sotagliflozin, (2S,3R,4R,5S,6R)-2-(4-chloro-3-(4-ethoxybenzyl)phenyl)-6-(methylthio)tetrahydro-2H-pyran-3,4,5-triol], the urinary glucose secretion result in assay [1] is given as “near maximal”. Also, the “LA enlargement (LA volume in vivo)” value in assay [2] is recorded as “mitigates LA enlargement”. In assay [3] (30 mM glucose), the “decrease of ROS production after reintroduction of glucose” value is reported as “this effect could not be observed”. Further, in assay [3] (after 1 h glucose starvation), the ROS production entry is recorded as “significantly reduced”. Further, the “effects on blood pressure and body weight” value in assay [4] is given as “beneficial effects”. In addition, the “shortening of time-to-peak and relaxation time” value in assay [5] (HFpEF) is given as “this effect could not be observed”. Moreover, in assay [5] (HFpEF, 3 Hz, 5 mM extracellular [Ca2+]), the diastolic sarcomere length entry was “significant increase”. Further, the “Ca2+ sensitivity” value in assay [5] (HFpEF, relationship of CaT and sarcomere shortening) is “reduced”. Further, in assay [5] (WT), the sarcomere relaxation time result is listed as “shortened” and the sarcomere shortening time-to-peak result is listed as “shortened”.

The record behind these values is patent US20240100013A1, “SOTAGLIFLOZIN FOR IMPROVING LEFT ATRIAL FUNCTION” (CHARITÉ-UNIVERSITÄTSMEDIZIN BERLIN, priority 2021, published 2024).
